Measurements taken from patent US20250179059A1 (The Regents of the University of California, priority 2021, published 2025).

Key:
[1] = biological target: T1, human BRD4 bromodomain II (Homo sapiens, UniProt O60885); assay: Bromodomain binding assay (AlphaScreen), BRD4 BDII; settings: AlphaScreen assay, Table C2; read-out: BRD4 BDII IC50
T1 construct: human BRD4 bromodomain II [based on Genbank NM_058243, residues 349-460]; host or cells: E. coli
Procedure, shortened: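 E. coli-expressed N-terminal His6-tagged human BRD4 BDII (residues 349-460) or BDI (residues 44-170) was preincubated 30 min at room temperature with compound (10-point, 3-fold) in pH 7.5 HEPES buffer, 1% DMSO. Displacement of biotinylated tetra-acetylated H4 1-21 peptide was read by AlphaScreen, and IC50 came from curve fitting.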

[2] = tested on: human SKM-1 acute myeloid leukemia cells; assay: SKM-1 antiproliferation cell-based assay (ATPlite); settings: Homo sapiens, SKM-1, 96 h, SKM-1 antiproliferation assay, 4 days, Table C2
Procedure, shortened: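 Log-phase cells in RPMI 1640/15% FBS were seeded at 34722 cells/mL and exposed for 4 days to nine-concentration DMSO serial dilutions in triplicate. Viability was read as ATP luminescence (ATPlite 1step), and IC50 values came from variable-slope non-linear regression.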

SMILES: CN1CCCC12CCN(c1cncc(-c3cc(F)cc(-c4ccc(-n5ccn(C)c5=O)c(Cl)c4)c3O)c1)C2 (centres unmarked) [Example 700, 1-(3-chloro-5′-fluoro-2′-hydroxy-3′-(5-(1-methyl-1,7-diazaspiro[4.4]nonan-7-yl)pyridin-3-yl)-[1,1′-biphenyl]-4-yl)-3-methyl-1H-imidazol-2(3H)-one]
- IC50 [1]: 0.01 to 1 nM
- GI50 [2]: 0.3 to 30 nM

SMILES: Cn1ccn(-c2ccc(-c3cc(F)cc(-c4ccnc(N5CCC(N6CCC(F)CC6)C5)c4)c3O)cc2Cl)c1=O (centres unmarked) [Example 701, 1-(3-chloro-5′-fluoro-3′-(2-(3-(4-fluoropiperidin-1-yl)pyrrolidin-1-yl)pyridin-4-yl)-2′-hydroxy-[1,1′-biphenyl]-4-yl)-3-methyl-1H-imidazol-2(3H)-one]
- IC50 [1]: 0.01 to 1 nM
- GI50 [2]: 30 to 300 nM

SMILES: COc1cc(-c2cc(F)cc(-c3ccc(-n4ccn(C)c4=O)c(Cl)c3)c2O)cc(N2CCN(C(C)C)CC2)n1 [Example 702, 1-(3-chloro-5′-fluoro-2′-hydroxy-3′-(2-(4-isopropylpiperazin-1-yl)-6-methoxypyridin-4-yl)-[1,1′-biphenyl]-4-yl)-3-methyl-1H-imidazol-2(3H)-one]
- IC50 [1]: 0.01 to 1 nM
- GI50 [2]: 0.3 to 30 nM

SMILES: Cc1cc(-c2cc(F)cc(-c3ccc(-n4ccn(C)c4=O)c(Cl)c3)c2O)cc(N2CCN(C(C)C)CC2)n1 [Example 703, 1-(3-chloro-5′-fluoro-2′-hydroxy-3′-(2-(4-isopropylpiperazin-1-yl)-6-methylpyridin-4-yl)-[1,1′-biphenyl]-4-yl)-3-methyl-1H-imidazol-2(3H)-one]
- IC50 [1]: 1 to 10 nM
- GI50 [2]: 0.3 to 30 nM

SMILES: CCc1cc(-c2cc(F)cc(-c3ccc(-n4ccn(C)c4=O)c(Cl)c3)c2O)cc(N2CCN(C(C)C)CC2)n1 [Example 704, 1-(3-chloro-3′-(2-ethyl-6-(4-isopropylpiperazin-1-yl)pyridin-4-yl)-5′-fluoro-2′-hydroxy-[1,1′-biphenyl]-4-yl)-3-methyl-1H-imidazol-2(3H)-one]
- IC50 [1]: 0.01 to 1 nM
- GI50 [2]: 0.3 to 30 nM

SMILES: Cn1ccn(-c2ccc(-c3cc(F)cc(-c4ccnc(N5CC6(CCNC6)CC5=O)c4)c3O)cc2Cl)c1=O (centres unmarked) [Example 705, 2-(4-(3′-chloro-5-fluoro-2-hydroxy-4′-(3-methyl-2-oxo-2,3-dihydro-1H-imidazol-1-yl)-[1,1′-biphenyl]-3-yl)pyridin-2-yl)-2,7-diazaspiro[4.4]nonan-3-one]
- IC50 [1]: 0.01 to 1 nM
- GI50 [2]: 30 to 300 nM

SMILES: Cn1ccn(-c2ccc(-c3cc(F)cc(-c4cc(F)cc(N5CCNCC5)c4)c3O)cc2Cl)c1=O [Example 706, 1-(3-chloro-3″,5′-difluoro-2′-hydroxy-5″-(piperazin-1-yl)-[1,1′:3,1″-terphenyl]-4-yl)-3-methyl-1H-imidazol-2(3H)-one]
- IC50 [1]: 0.01 to 1 nM
- GI50 [2]: 0.3 to 30 nM

SMILES: Cn1ccn(-c2ccc(-c3cc(F)cc(-c4ccnc(N5CCS(=O)(=O)CC5)c4)c3O)cc2Cl)c1=O [Example 707, 1-(3-chloro-3′-(2-(1,1-dioxidothiomorpholino)pyridin-4-yl)-5′-fluoro-2′-hydroxy-[1,1′-biphenyl]-4-yl)-3-methyl-1H-imidazol-2(3H)-one]
- IC50 [1]: 1 to 10 nM
- GI50 [2]: 30 to 300 nM

SMILES: Cn1ccn(-c2ccc(-c3cc(F)cc(-c4cncc(N5CCC(C)(O)C5)c4)c3O)cc2Cl)c1=O (centres unmarked) [Example 708, 1-(3-chloro-5′-fluoro-2′-hydroxy-3′-(5-(3-hydroxy-3-methylpyrrolidin-1-yl)pyridin-3-yl)-[1,1′-biphenyl]-4-yl)-3-methyl-1H-imidazol-2(3H)-one]
- IC50 [1]: 0.01 to 1 nM
- GI50 [2]: 0.3 to 30 nM

SMILES: Cn1ccn(-c2ccc(-c3cc(F)cc(-c4ccnc(N5CC[C@](C)(N)C5)c4)c3O)cc2Cl)c1=O [Example 711, (S)-1-(3′-(2-(3-amino-3-methylpyrrolidin-1-yl)pyridin-4-yl)-3-chloro-5′-fluoro-2′-hydroxy-[1,1′-biphenyl]-4-yl)-3-methyl-1,3-dihydro-2H-imidazol-2-one]
- IC50 [1]: 0.01 to 1 nM
- GI50 [2]: 0.3 to 30 nM

SMILES: CN1CCC2(CC(=O)N(c3cc(-c4cc(F)cc(-c5ccc(-n6ccn(C)c6=O)c(Cl)c5)c4O)ccn3)C2)C1 (centres unmarked) [Example 712, 2-(4-(3′-chloro-5-fluoro-2-hydroxy-4′-(3-methyl-2-oxo-2,3-dihydro-1H-imidazol-1-yl)-[1,1′-biphenyl]-3-yl)pyridin-2-yl)-7-methyl-2,7-diazaspiro[4.4]nonan-3-one]
- IC50 [1]: 0.01 to 1 nM
- GI50 [2]: 30 to 300 nM

SMILES: CC(C)N1CCN(c2cc(F)cc(-c3cc(F)cc(-c4ccc(-n5ccn(C)c5=O)c(Cl)c4)c3O)c2)CC1 [Example 713, 1-(3-chloro-3″,5′-difluoro-2′-hydroxy-5″-(4-isopropylpiperazin-1-yl)-[1,1′:3′,1″-terphenyl]-4-yl)-3-methyl-1H-imidazol-2(3H)-one]
- IC50 [1]: 0.01 to 1 nM
- GI50 [2]: 0.3 to 30 nM

SMILES: Cn1ccn(-c2ccc(-c3cc(F)cc(-c4ccnc(N5CCCC(C)(O)C5)c4)c3O)cc2Cl)c1=O (centres unmarked) [Example 714, 1-(3-chloro-5′-fluoro-2′-hydroxy-3′-(2-(3-hydroxy-3-methylpiperidin-1-yl)pyridin-4-yl)-[1,1′-biphenyl]-4-yl)-3-methyl-1H-imidazol-2(3H)-one]
- IC50 [1]: 0.01 to 1 nM
- GI50 [2]: 30 to 300 nM

SMILES: COCCCOc1cc(-c2cc(F)cc(-c3ccc(-n4ccn(C)c4=O)c(Cl)c3)c2O)cc(N2CCN[C@H](C)C2)n1 [Example 715, (R)-1-(3-chloro-5′-fluoro-2′-hydroxy-3′-(2-(3-methoxypropoxy)-6-(3-methylpiperazin-1-yl)pyridin-4-yl)-[1,1′-biphenyl]-4-yl)-3-methyl-1H-imidazol-2(3H)-one]
- IC50 [1]: 0.01 to 1 nM
- GI50 [2]: 0.3 to 30 nM

SMILES: Cn1ccn(-c2ccc(-c3cc(F)cc(-c4ccnc(N5CC[C@@](C)(N)C5)c4)c3O)cc2Cl)c1=O [Example 716, (R)-1-(3′-(2-(3-amino-3-methylpyrrolidin-1-yl)pyridin-4-yl)-3-chloro-5′-fluoro-2′-hydroxy-[1,1′-biphenyl]-4-yl)-3-methyl-1,3-dihydro-]
- IC50 [1]: 0.01 to 1 nM
- GI50 [2]: 0.3 to 30 nM

SMILES: CC(C)N1CCN(c2cc(-c3cc(F)cc(-c4ccc(-n5ccn(C)c5=O)c(Cl)c4)c3O)cc(=O)n2C)CC1 [Example 717, 4-(3′-chloro-5-fluoro-2-hydroxy-4′-(3-methyl-2-oxo-2,3-dihydro-1H-imidazol-1-yl)-[1,1′-biphenyl]-3-yl)-6-(4-isopropylpiperazin-1-yl)-1-methylpyridin-2(1H)-one]
- IC50 [1]: 0.01 to 1 nM
- GI50 [2]: 0.3 to 30 nM

SMILES: Cn1ccn(-c2ccc(-c3cc(F)cc(-c4ccnc(N5CCC(O)(C6CC6)C5)c4)c3O)cc2Cl)c1=O (centres unmarked) [Example 718, 1-(3-chloro-3′-(2-(3-cyclopropyl-3-hydroxypyrrolidin-1-yl)pyridin-4-yl)-5′-fluoro-2′-hydroxy-[1,1′-biphenyl]-4-yl)-3-methyl-1H-imidazol-2(3H)-one]
- IC50 [1]: 0.01 to 1 nM
- GI50 [2]: 0.3 to 30 nM

SMILES: Cn1ccn(-c2ccc(-c3cc(F)cc(-c4ccc(F)c(N5CCN(C(C)(C)C)CC5)c4)c3O)cc2Cl)c1=O [Example 719, 1-(3″-(4-(tert-butyl)piperazin-1-yl)-3-chloro-4″,5′-difluoro-2′-hydroxy-[1,1′:3′,1″-terphenyl]-4-yl)-3-methyl-1H-imidazol-2(3H)-one]
- IC50 [1]: 0.01 to 1 nM
- GI50 [2]: 0.3 to 30 nM

SMILES: CC(C)N1CCN(c2cc(-c3cc(F)cc(-c4ccc(-n5ccn(C)c5=O)c(Cl)c4)c3O)ccc2F)CC1 [Example 720, 1-(3-chloro-4″,5′-difluoro-2′-hydroxy-3″-(4-isopropylpiperazin-1-yl)-[1,1′:3′,1″-terphenyl]-4-yl)-3-methyl-1H-imidazol-2(3H)-one]
- IC50 [1]: 0.01 to 1 nM
- GI50 [2]: 0.3 to 30 nM
